One assay addresses T1, human MAGL (His-hMAGL) (Homo sapiens, UniProt Q99685).
T1 construct: made in house; host or cells: Escherichia coli BL21(DE3)
T1 sequence (Q99685 1-303): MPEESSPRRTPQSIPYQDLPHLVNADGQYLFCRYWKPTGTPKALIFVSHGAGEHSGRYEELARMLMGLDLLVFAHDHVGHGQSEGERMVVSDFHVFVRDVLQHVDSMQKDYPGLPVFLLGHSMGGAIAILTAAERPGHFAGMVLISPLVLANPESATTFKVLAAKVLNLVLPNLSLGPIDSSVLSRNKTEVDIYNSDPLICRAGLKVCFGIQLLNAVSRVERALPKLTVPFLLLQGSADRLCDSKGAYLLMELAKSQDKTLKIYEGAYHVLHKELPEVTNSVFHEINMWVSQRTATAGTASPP
Put plainly: Measurement of MAGL inhibitory activity by mass spectrometry. Format: biochemical. To be noted: 10 μM test compound; substrate 2-arachidonylglycerol, arachidonic acid by RapidFire-mass spectrometry. The gist of the method: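 His-tagged human MAGL was reacted with 150 μM 2-arachidonylglycerol substrate (stock, added by 5 μL) for 10 min at room temperature, then stopped with formic acid. Arachidonic acid product was quantified by RapidFire–triple-quadrupole MS in negative SRM mode, corrected by arachidonic acid-d8, and converted to percent inhibition.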
What is called inhibition is the drop in the measured response relative to a control, in per cent. With `CNC(=O)c1ccc(-c2cccc(N3CC(N4CCN(C(=O)c5nccs5)CC4)CC3=O)c2)cc1` (stereo not drawn) [Example 104, N-methyl-3′-(2-oxo-4-(4-(1,3-thiazol-2-ylcarbonyl)piperazin-1-yl)pyrrolidin-1-yl)biphenyl-4-carboxamide], the inhibition at 10 µM was 95%.

For `Cc1ccccc1-c1ccc(N2CC(N3CCN(C(=O)c4nccs4)CC3)CC2=O)cc1` (stereo not drawn) [Example 176, 1-(2′-methylbiphenyl-4-yl)-4-(4-(1,3-thiazol-2-ylcarbonyl)piperazin-1-yl)pyrrolidin-2-one], the inhibition at 10 µM is 100%.

For the compound `O=C(c1nccs1)N1CCN(C2CC(=O)N(c3cccc(Cc4ccccc4)c3)C2)CC1` (stereo not drawn) [Example 99, 1-(3-benzylphenyl)-4-(4-(1,3-thiazol-2-ylcarbonyl)piperazin-1-yl)pyrrolidin-2-one], the inhibition at 10 µM was found to be 102%.

As to `O=C(c1nccs1)N1CCN(C2CC(=O)N(c3cccc(-c4ncccc4Cl)c3)C2)CC1` (stereo not drawn) [Example 151, 1-(3-(3-chloropyridin-2-yl)phenyl)-4-(4-(1,3-thiazol-2-ylcarbonyl)piperazin-1-yl)pyrrolidin-2-one], the inhibition at 10 µM was determined as 99%.

In the case of `NC(=O)c1cccc(-c2cccc(N3CC(N4CCN(C(=O)c5nccs5)CC4)CC3=O)c2)c1` (stereo not drawn) [Example 98, 3′-(2-oxo-4-(4-(1,3-thiazol-2-ylcarbonyl)piperazin-1-yl)pyrrolidin-1-yl)biphenyl-3-carboxamide], the inhibition at 10 µM was determined as 100%.

In the case of `O=C(c1nccs1)N1CCN(C2CC(=O)N(c3cccc(-c4c(F)cccc4F)c3)C2)CC1` (stereo not drawn) [Example 145, 1-(2′,6′-Difluorobiphenyl-3-yl)-4-(4-(1,3-thiazol-2-ylcarbonyl)piperazin-1-yl)pyrrolidin-2-one], the inhibition at 10 µM worked out at 102%.

The assay is the same for the next values; noted with them: MAGL inhibitory rate, test compound 10 μM, His-hMAGL, substrate 2-arachidonylglycerol, RapidFire-mass spectrometry.
For `COc1nccc2[nH]cc(-c3cccc(N4CC(N5CCN(C(=O)c6nccs6)CC5)CC4=O)c3)c12` (stereo not drawn) [Example 343, 1-(3-(4-methoxy-1H-pyrrolo[3,2-c]pyridin-3-yl)phenyl)-4-(4-(1,3-thiazol-2-ylcarbonyl)piperazin-1-yl)pyrrolidin-2-one], the inhibition at 10 µM is 101%.

For `CC(=O)Nc1ccccc1-c1cccc(N2CC(N3CCN(C(=O)c4nccs4)CC3)CC2=O)c1` (stereo not drawn) [Example 303, N-(3′-(2-oxo-4-(4-(1,3-thiazol-2-ylcarbonyl)piperazin-1-yl)pyrrolidin-1-yl)biphenyl-2-yl)acetamide], the inhibition at 10 µM is 88%.

Consider `O=C(c1nccs1)N1CCN(C2CC(=O)N(c3cccc(-c4cccc5[nH]ccc45)c3)C2)CC1` (stereo not drawn) [Example 307, 1-(3-(1H-indol-4-yl)phenyl)-4-(4-(1,3-thiazol-2-ylcarbonyl)piperazin-1-yl)pyrrolidin-2-one], for which the inhibition at 10 µM stood at 103%.

On to `Cc1cccc(-c2ccc(N3CC(N4CCN(C(=O)c5nccs5)CC4)CC3=O)cc2)c1` (stereo not drawn) [Example 208], for which the inhibition at 10 µM was 101%.

Consider `O=C(c1nccs1)N1CCN([C@@H]2CC(=O)N(c3ccc4c(ccn4-c4cnc(C(F)(F)F)cn4)c3)C2)CC1` [Example 245, (4R)-4-(4-(1,3-thiazol-2-ylcarbonyl)piperazin-1-yl)-1-(1-(5-(trifluoromethyl)pyrazin-2-yl)-1H-indol-5-yl)pyrrolidin-2-one], for which the inhibition at 10 µM was 98%.

In the case of `O=C(O)c1ccc(-c2cccc(N3CC(N4CCN(C(=O)c5nccs5)CC4)CC3=O)c2)cc1` (stereo not drawn) [Example 286, 3′-(2-oxo-4-(4-(1,3-thiazol-2-ylcarbonyl)piperazin-1-yl)pyrrolidin-1-yl)biphenyl-4-carboxylic acid], the inhibition at 10 µM was determined as 91%.

For `O=C1Cc2c(-c3cccc(N4CC(N5CCN(C(=O)c6nccs6)CC5)CC4=O)c3)ccnc2N1` (stereo not drawn) [Example 348, 4-(3-(2-oxo-4-(4-(1,3-thiazol-2-ylcarbonyl)piperazin-1-yl)pyrrolidin-1-yl)phenyl)-1,3-dihydro-2H-pyrrolo[2,3-b]pyridin-2-one], the inhibition at 10 µM came to 99%.

Consider `O=C(c1nccs1)N1CCN(C2CC(=O)N(c3ccc4c(c3)CCN4C(=O)C(F)(F)F)C2)CC1` (stereo not drawn) [Example 373, 4-(4-(1,3-Thiazol-2-ylcarbonyl)piperazin-1-yl)-1-(1-(trifluoroacetyl)-2,3-dihydro-1H-indol-5-yl)pyrrolidin-2-one], for which the inhibition at 10 µM came to 96%.

For `CC(C)CC(=O)N1CCc2cc(N3CC(N4CCN(C(=O)c5nccs5)CC4)CC3=O)ccc21` (stereo not drawn) [Example 397, 1-(1-(3-methylbutanoyl)-2,3-dihydro-1H-indol-5-yl)-4-(4-(1,3-thiazol-2-ylcarbonyl)piperazin-1-yl)pyrrolidin-2-one], the inhibition at 10 µM amounted to 101%.

Consider `O=C(c1cscn1)N1CCN([C@@H]2CC(=O)N(c3ccc4c(ccn4-c4ncc(C(F)(F)F)cn4)c3)C2)CC1` [Example 432, (4R)-4-(4-(1,3-Thiazol-4-ylcarbonyl)piperazin-1-yl)-1-(1-(5-(trifluoromethyl)pyrimidin-2-yl)-1H-indol-5-yl)pyrrolidin-2-one], for which the inhibition at 10 µM worked out at 100%.

For `CC(C)(C)CC(=O)N1CCc2cc(N3CC(N4CCN(C(=O)c5nccs5)CC4)CC3=O)ccc21` (stereo not drawn) [Example 382, 1-(1-(3,3-Dimethylbutanoyl)-2,3-dihydro-1H-indol-5-yl)-4-(4-(1,3-thiazol-2-ylcarbonyl)piperazin-1-yl)pyrrolidin-2-one], the inhibition at 10 µM is 99%.

Regarding `O=C1Cc2ccc(-c3cccc(N4CC(N5CCN(C(=O)c6nccs6)CC5)CC4=O)c3)cc2N1` (stereo not drawn) [Example 200, 6-(3-(2-oxo-4-(4-(1,3-thiazol-2-ylcarbonyl)piperazin-1-yl)pyrrolidin-1-yl)phenyl)-1,3-dihydro-2H-indol-2-one], the inhibition at 10 µM was 98%.

As for `Cc1ccccc1-c1cccc(N2CC(N3CCN(c4ncccn4)CC3)CC2=O)c1` (stereo not drawn) [Example 268, 1-(2′-methylbiphenyl-3-yl)-4-(4-(pyrimidin-2-yl)piperazin-1-yl)pyrrolidin-2-one], the inhibition at 10 µM was determined as 101%.

Take `Cc1ccccc1-c1cccc(N2CC(N3CCN(C(=O)c4ncco4)CC3)CC2=O)c1` (stereo not drawn) [Example 221, 1-(2′-methylbiphenyl-3-yl)-4-(4-(1,3-oxazol-2-ylcarbonyl)piperazin-1-yl)pyrrolidin-2-one]: the inhibition at 10 µM amounted to 101%.

`Cn1ccnc1-c1cccc(N2CC(N3CCN(C(=O)c4nccs4)CC3)CC2=O)c1` (stereo not drawn) [Example 333, 1-(3-(1-methyl-1H-imidazol-2-yl)phenyl)-4-(4-(1,3-thiazol-2-ylcarbonyl)piperazin-1-yl)pyrrolidin-2-one]: the inhibition at 10 µM was 83%.

On to `O=C(c1cccc(-c2cccc(N3CC(N4CCN(C(=O)c5nccs5)CC4)CC3=O)c2)c1)N1CCCC1` (stereo not drawn) [Example 321, 1-(3′-(pyrrolidin-1-ylcarbonyl)biphenyl-3-yl)-4-(4-(1,3-thiazol-2-ylcarbonyl)piperazin-1-yl)pyrrolidin-2-one], for which the inhibition at 10 µM was 102%.

`O=C(c1nccs1)N1CCN(C2CC(=O)N(c3cccc(-c4cccc(F)c4F)c3)C2)CC1` (stereo not drawn) [Example 299, 1-(2′,3′-difluorobiphenyl-3-yl)-4-(4-(1,3-thiazol-2-ylcarbonyl)piperazin-1-yl)pyrrolidin-2-one]: the inhibition at 10 µM amounted to 102%.

Regarding `O=C(c1nccs1)N1CCN(C2CC(=O)N(c3ccc4c(ccn4-c4ccccc4)c3)C2)CC1` (stereo not drawn) [Example 250, 1-(1-phenyl-1H-indol-5-yl)-4-(4-(1,3-thiazol-2-ylcarbonyl)piperazin-1-yl)pyrrolidin-2-one], the inhibition at 10 µM was determined as 101%.

Source of the values: patent US9624170B2, “4-(piperrazin-1-yl)-pyrrolidin-2-one compounds as monoacylglycerol lipase (MAGL) inhibitors” (TAKEDA PHARMACEUTICAL COMPANY LIMITED, priority 2013, dated 2017).
